The target of assay [1] is Potassium voltage-gated channel subfamily KQT member 2/member 3 (Rattus norvegicus, UniProt O88943+O88944). Description: Mode of action assay-Dose response assay for KCNQ2 activators in the KCNQ2/KCNQ3 co-expressing cells on automated patch clamp. [Related pubchem assays (depositor defined):AID2239, AID2258, AID2287]. It counts as functional. (The patch-clamp technique gives a direct electrical read-out from membranes.)

In assay [2] the target is Potassium voltage-gated channel subfamily KQT member 4 (Homo sapiens, UniProt P56696). Kind of assay: activation of KCNQ4 potassium current – automated patch clamp, CHO cells, selectivity assay for KCNQ2 activator project, dose response (AID 493043). The format is functional, cell-based.
Assay [3] deals with Potassium voltage-gated channel subfamily KQT member 2 (Rattus norvegicus, UniProt O88943). Description: Mode of action assay-Dose response assay for compounds that activate KCNQ2 potassium channels on automated patch clamp. [Related pubchem assays (depositor defined):AID2239, AID2258, AID2287, AID493113]. It counts as functional.
The target in assay [4] is T1, Heat shock factor protein 1 (Mus musculus, UniProt P38532).
T1 sequence (P38532 whole entry): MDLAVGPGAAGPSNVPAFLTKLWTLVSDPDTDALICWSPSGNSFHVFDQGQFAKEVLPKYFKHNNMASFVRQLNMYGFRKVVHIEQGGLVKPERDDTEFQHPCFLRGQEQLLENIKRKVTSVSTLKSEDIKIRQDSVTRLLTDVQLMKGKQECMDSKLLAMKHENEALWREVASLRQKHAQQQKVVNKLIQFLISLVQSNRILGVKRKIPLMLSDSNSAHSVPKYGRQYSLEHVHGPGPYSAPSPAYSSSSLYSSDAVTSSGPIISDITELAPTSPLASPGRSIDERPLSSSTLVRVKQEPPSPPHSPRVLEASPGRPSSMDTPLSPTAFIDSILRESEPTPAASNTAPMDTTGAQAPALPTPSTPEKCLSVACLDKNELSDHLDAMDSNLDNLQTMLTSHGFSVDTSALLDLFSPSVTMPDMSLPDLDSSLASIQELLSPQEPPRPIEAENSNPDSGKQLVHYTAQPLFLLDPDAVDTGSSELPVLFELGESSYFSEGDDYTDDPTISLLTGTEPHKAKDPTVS
Description: decrease of HSF1-responsive luciferase luminescence – cell-based, NIH3T3, dose retest, confirmation (AID 2382).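 Also: NIH3T3 fibroblasts with HSF1-driven luciferase reporter stressed by proteasome inhibitor MG132; luminescence from HSF1-driven luciferase expression after 8 hours of MG132 stress.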 It counts as functional.

Assay [5] concerns BJ. Kind of assay: BJ-TERT fibroblast viability loss – cell-based, RAS-independent, luminescence, dose response (AID 1933). The format is functional. The settings on record: Homo sapiens.
Assay [6] has as its system INS1. Description: INS-1E survival protection against cytokine death – cell-based, luminescence, retest, dose response (AID 449756).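 Also: cell death triggered by IL-1 beta plus TNF-alpha plus IFN-gamma mixture; protective hits raise ATP signal compared with cytokine alone wells.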 The format is functional. The conditions noted are these: Rattus norvegicus.
Assay [7] deals with T2, Sphingosine 1-phosphate receptor 4 (Homo sapiens, UniProt O95977).
T2 sequence (O95977 whole entry): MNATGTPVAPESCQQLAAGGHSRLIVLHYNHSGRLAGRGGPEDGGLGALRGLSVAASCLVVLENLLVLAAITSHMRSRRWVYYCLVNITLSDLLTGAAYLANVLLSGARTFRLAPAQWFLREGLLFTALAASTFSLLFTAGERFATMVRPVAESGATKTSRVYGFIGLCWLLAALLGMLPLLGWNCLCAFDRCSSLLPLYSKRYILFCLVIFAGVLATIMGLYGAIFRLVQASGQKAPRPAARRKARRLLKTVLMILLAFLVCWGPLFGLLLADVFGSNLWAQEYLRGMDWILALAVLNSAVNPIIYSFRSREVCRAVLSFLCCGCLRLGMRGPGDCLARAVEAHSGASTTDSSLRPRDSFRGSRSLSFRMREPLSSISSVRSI
Kind of assay: Fluorescence dose response cell-based high throughput screening assay for antagonists of the Sphingosine 1-Phosphate Receptor 4 (S1P4). [Related pubchem assays: 1524 (Confirmation in triplicates.), 1510 (Primary screen.)]. The format is functional.

Assay [8] has as its target Heat shock protein HSP 90-alpha (Homo sapiens, UniProt P07900). The format is functional, organism-based.
The nature of assay [9]: DRD fibroblast viability loss – cell-based, non-viral oncogenic, luminescence, dose response (AID 1934). It counts as functional. The settings on record: Homo sapiens.
Assay [10] deals with CHO. Kind of assay: CHO cell viability loss, potency – luminescence, cytotoxicity control for TLR9-MyD88 binding inhibitor project, dose response (AID 588339).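 Also: CHO cells stably coexpressing TLR9 and MyD88 fusions from primary screen; compound exposure lasted 48 hours before viability readout.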 The format is functional, cell-based, hamster. The settings on record: Cricetulus griseus.
The target in assay [11] is Beta Lactamase (Pseudomonas aeruginosa, UniProt Q932Y6). Kind of assay: BLA reporter interference, concentration series – BLA reporter cells, FRET fluorescence, artefact control for TLR9-MyD88 binding inhibitor project, dose response (AID 588341).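 Also: cell based assay in CHO-K1 cells stably expressing beta-lactamase.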 The format is cell-based.
Assay [12] concerns the target Beta-galactosidase (Escherichia coli, UniProt Q8VNN2). Kind of assay: PubChem AID 485352. The format is functional.
Assay [13] deals with T2, Sphingosine 1-phosphate receptor 4. Description: Late stage fluorescence dose response cell-based screening assay for antagonists of the Sphingosine 1-Phosphate Receptor 4 (S1P4). [Related pubchem assays: 1524 (Confirmation screen (S1P4 antagonists).), 1510 (Primary screen (S1P4 antagonists).), 1853 (Summary AID (S1P4 antagonists).), 1692 (Dose response screen (S1P4 antagonists).)]. The format is functional.

Assay [14] concerns BJ. Description: cells. It counts as functional, cell-based. The settings on record: Homo sapiens.
Assay [15] deals with Type-1 angiotensin II receptor (Homo sapiens, UniProt P30556). Kind of assay: antagonism of angiotensin II type 1 receptor – cell-based, uHTS hits, selectivity assay for APJ receptor antagonist project, dose response (AID 463214).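 Also: antagonist potency against angiotensin II stimulated AT1 response.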 It counts as functional.
The target of assay [16] is Sphingosine 1-phosphate receptor 1 (Homo sapiens, UniProt P21453). The format is functional.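 Also: Tango beta-arrestin reporter U2OS cells stimulated with S1P near its EC80; inhibitor potency meaning antagonism of receptor activation by the natural agonist.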
Assay [17] has as its system BJ. Kind of assay: BJ-TERT-LT-ST fibroblast viability loss – cell-based, RAS-independent, luminescence, dose response (AID 1935).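 Also: BJ fibroblasts immortalized with TERT plus LT and ST oncogenes.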 The settings on record: Homo sapiens. It counts as functional.
Assay [18] deals with Hexokinase-1 (Homo sapiens, UniProt P19367). Description: SAR analysis of small molecule inhibitors of hexokinase domain containing I (HKDC1) in the hexokinase 1 selectivity assay. [Related pubchem assays (depositor defined):AID493160, AID493190]. It counts as functional.
The target in assay [19] is T3, Hexokinase HKDC1 (Homo sapiens, UniProt Q2TB90).
T3 sequence (Q2TB90 whole entry): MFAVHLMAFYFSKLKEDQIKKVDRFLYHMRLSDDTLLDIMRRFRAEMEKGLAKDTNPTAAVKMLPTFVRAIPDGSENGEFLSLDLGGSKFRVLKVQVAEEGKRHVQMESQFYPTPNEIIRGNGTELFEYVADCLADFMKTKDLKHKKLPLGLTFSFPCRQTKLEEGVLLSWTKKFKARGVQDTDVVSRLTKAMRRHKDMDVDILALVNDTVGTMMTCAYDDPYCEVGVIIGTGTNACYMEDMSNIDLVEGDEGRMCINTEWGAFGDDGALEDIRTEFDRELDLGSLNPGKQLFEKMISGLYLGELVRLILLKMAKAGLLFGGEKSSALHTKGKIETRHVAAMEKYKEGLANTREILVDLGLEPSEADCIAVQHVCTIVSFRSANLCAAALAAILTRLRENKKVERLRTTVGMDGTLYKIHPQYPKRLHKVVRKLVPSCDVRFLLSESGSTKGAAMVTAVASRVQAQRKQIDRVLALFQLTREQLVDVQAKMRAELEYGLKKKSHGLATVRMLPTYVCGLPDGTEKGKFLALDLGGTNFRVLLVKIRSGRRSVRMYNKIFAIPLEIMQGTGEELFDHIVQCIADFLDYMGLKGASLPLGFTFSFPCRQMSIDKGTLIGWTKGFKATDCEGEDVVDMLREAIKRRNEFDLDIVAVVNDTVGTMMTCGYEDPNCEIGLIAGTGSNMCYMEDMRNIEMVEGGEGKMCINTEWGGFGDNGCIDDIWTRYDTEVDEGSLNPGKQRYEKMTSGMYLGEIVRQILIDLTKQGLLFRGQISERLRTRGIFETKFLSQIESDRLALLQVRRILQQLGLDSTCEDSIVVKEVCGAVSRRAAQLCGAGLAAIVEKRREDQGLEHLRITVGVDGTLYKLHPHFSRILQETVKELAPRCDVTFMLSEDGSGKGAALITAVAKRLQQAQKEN
Kind of assay: SAR analysis of small molecule inhibitors of hexokinase domain containing I (HKDC1). [Related pubchem assays (depositor defined):AID493160, AID493190]. It counts as functional.

For assay [20], the system named is INS1. Description: INS-1E mitochondrial potential rescue under cytokines – cell-based, JC-1 fluorescence ratio, dry powder, dose response (AID 488931). The conditions noted are these: Rattus norvegicus. The format is functional.
In assay [21] the target is T4, Short transient receptor potential channel 4 (Mus musculus, UniProt Q9QUQ5).
T4 sequence (Q9QUQ5 whole entry): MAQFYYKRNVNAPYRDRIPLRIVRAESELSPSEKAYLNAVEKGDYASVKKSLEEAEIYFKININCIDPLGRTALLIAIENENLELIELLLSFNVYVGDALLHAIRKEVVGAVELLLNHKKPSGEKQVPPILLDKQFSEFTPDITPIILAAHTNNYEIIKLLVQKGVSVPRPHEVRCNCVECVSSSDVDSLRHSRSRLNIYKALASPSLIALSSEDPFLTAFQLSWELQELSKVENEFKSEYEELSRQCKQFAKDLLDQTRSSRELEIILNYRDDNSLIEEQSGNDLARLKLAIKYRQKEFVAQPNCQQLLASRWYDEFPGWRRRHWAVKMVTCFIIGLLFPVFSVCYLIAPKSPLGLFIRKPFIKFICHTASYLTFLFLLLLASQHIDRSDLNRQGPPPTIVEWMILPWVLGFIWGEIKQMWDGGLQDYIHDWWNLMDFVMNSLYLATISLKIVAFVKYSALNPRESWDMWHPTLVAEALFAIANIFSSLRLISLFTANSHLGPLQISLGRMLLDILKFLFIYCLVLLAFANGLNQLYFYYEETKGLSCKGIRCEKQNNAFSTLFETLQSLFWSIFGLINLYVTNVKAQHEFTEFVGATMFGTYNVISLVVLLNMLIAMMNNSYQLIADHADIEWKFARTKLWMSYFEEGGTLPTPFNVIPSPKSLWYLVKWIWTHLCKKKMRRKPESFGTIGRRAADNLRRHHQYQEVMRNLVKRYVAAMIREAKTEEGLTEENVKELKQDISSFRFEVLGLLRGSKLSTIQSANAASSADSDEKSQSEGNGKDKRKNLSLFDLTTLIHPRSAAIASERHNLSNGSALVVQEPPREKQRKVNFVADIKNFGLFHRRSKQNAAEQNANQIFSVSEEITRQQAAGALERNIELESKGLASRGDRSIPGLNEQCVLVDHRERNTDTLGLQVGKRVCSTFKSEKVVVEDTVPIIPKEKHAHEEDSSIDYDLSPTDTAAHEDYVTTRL
Description: potency of mouse TRPC4 calcium flux blockers – cell-based, HEK293 TRPC4/mu-opioid, DAMGO stimulus, Fluo-4, dose response (AID 492994). It counts as functional.

The target in assay [22] is T4, Short transient receptor potential channel 4. Description: mouse TRPC4 block via Gq-coupled stimulation – cell-based, acetylcholine stimulus, HEK293 TRPC4, Fluo-4, SAR follow-up (AID 492996). The format is functional.
For assay [23] the target is unchanged. Kind of assay: SAR Analysis for the identification of selective inhibits of the transient receptor potential cation channel C4 (TRPC4): Automated Electrophysiology_2. [Related pubchem assays (depositor defined):AID2256]. It counts as functional.
The target of assay [24] is Short transient receptor potential channel 6 (Mus musculus, UniProt Q61143). Description: mouse TRPC6 channel blockers, concentration series – HEK293 cells, membrane potential dye, IC50, selectivity assay for selective TRPC4 inhibitor project, dose response (AID 492987). The format is functional, cell-based.

Active and inactive are the calls of the source.

Sequence of Sphingosine 1-phosphate receptor 1 (P21453 whole entry): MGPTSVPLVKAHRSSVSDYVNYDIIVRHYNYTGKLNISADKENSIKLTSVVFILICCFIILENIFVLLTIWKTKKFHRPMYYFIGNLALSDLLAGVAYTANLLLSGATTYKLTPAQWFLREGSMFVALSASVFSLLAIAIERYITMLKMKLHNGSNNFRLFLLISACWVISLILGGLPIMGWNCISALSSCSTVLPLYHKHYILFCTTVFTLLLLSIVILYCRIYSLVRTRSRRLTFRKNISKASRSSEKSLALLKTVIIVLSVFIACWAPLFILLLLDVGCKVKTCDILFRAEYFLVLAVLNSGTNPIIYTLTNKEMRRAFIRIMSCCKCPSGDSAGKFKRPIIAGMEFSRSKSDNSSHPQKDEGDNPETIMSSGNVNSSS
Sequence of Hexokinase-1 (P19367 whole entry, the tested form may be a part): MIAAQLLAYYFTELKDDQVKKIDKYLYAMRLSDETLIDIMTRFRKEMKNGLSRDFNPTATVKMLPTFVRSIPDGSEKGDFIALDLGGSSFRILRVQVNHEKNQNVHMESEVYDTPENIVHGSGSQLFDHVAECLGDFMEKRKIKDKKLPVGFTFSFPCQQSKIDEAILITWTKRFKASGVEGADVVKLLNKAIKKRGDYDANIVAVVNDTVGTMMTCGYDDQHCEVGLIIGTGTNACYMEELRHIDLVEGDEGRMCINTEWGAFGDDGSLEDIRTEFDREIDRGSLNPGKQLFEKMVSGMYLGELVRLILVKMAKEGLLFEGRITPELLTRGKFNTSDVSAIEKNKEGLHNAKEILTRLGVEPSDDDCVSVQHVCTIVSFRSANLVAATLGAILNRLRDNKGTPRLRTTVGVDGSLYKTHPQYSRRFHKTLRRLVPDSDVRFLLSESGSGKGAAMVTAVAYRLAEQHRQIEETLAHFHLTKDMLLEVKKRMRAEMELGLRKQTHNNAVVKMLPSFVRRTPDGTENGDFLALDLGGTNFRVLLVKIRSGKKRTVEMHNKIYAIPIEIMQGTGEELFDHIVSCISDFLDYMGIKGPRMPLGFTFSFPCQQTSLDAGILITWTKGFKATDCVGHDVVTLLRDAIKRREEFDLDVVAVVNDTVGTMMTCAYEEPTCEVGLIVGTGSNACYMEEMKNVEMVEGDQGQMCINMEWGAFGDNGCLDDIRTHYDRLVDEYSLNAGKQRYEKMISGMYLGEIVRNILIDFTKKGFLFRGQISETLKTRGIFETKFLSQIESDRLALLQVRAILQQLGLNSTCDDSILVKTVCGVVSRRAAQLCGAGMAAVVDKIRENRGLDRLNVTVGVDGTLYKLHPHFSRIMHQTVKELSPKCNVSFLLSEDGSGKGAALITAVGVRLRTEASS
Sequence of Potassium voltage-gated channel subfamily KQT member 4 (P56696 whole entry): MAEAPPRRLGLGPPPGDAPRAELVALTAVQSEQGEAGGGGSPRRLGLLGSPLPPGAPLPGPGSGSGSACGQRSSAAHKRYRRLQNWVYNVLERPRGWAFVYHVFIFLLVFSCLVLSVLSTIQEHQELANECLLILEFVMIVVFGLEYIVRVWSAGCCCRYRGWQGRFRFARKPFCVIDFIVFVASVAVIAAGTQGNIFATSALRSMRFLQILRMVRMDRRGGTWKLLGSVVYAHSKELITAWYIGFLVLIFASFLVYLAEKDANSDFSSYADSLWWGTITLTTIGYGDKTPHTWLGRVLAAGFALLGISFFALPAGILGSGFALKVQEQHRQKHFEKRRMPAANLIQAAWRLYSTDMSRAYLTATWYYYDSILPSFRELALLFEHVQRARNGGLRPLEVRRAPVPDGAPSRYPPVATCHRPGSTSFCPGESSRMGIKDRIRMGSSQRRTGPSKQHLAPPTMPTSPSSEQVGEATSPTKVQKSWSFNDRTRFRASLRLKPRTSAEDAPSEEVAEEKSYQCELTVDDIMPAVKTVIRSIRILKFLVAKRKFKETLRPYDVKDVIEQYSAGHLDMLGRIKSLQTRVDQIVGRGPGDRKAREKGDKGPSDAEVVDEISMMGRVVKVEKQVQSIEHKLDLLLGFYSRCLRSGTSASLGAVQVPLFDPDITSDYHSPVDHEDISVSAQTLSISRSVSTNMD
Sequence of Beta-galactosidase (Q8VNN2 whole entry): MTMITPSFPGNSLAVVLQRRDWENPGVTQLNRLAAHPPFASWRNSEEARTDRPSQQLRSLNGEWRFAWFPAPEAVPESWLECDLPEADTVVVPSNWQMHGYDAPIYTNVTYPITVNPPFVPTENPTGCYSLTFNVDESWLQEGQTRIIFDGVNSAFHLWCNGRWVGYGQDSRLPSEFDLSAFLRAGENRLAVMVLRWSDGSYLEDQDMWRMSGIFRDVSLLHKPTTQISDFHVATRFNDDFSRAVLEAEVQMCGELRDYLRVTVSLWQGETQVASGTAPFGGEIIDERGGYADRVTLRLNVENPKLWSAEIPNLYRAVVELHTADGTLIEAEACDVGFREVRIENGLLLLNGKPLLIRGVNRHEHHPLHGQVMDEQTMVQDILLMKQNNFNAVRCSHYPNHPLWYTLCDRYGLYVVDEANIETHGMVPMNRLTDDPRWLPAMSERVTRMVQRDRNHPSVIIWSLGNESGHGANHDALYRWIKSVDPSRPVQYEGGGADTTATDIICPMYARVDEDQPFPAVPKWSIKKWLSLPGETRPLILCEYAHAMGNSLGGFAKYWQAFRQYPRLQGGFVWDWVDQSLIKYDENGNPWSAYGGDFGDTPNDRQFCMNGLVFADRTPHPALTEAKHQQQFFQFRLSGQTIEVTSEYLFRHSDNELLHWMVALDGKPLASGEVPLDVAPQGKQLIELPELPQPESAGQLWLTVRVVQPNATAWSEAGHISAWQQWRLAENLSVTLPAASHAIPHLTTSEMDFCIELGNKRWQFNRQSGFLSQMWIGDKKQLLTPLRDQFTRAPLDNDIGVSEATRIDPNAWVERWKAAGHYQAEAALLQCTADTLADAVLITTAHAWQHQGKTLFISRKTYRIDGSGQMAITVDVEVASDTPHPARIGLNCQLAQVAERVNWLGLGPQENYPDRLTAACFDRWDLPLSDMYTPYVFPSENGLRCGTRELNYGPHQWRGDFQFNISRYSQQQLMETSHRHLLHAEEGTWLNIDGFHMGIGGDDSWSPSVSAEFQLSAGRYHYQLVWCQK
Sequence of Type-1 angiotensin II receptor (P30556 whole entry): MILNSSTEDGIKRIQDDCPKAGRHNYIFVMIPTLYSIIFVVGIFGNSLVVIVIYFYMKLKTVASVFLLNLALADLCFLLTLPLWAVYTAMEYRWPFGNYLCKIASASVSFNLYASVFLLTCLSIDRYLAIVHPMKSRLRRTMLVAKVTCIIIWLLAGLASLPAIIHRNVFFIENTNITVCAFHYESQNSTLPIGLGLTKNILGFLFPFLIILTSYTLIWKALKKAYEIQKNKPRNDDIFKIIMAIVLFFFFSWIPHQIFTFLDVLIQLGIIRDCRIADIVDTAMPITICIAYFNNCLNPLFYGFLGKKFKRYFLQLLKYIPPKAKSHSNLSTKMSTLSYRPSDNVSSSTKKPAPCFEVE
Sequence of Beta Lactamase (Q932Y6 whole entry): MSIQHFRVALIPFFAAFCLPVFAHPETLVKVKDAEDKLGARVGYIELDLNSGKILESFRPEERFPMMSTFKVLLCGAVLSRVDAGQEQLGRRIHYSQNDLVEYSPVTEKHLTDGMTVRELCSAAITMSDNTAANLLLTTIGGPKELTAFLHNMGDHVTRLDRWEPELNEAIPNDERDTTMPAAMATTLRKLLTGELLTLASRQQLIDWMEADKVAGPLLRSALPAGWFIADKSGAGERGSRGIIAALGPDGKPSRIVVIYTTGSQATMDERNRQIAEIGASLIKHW
Sequence of Short transient receptor potential channel 6 (Q61143 whole entry): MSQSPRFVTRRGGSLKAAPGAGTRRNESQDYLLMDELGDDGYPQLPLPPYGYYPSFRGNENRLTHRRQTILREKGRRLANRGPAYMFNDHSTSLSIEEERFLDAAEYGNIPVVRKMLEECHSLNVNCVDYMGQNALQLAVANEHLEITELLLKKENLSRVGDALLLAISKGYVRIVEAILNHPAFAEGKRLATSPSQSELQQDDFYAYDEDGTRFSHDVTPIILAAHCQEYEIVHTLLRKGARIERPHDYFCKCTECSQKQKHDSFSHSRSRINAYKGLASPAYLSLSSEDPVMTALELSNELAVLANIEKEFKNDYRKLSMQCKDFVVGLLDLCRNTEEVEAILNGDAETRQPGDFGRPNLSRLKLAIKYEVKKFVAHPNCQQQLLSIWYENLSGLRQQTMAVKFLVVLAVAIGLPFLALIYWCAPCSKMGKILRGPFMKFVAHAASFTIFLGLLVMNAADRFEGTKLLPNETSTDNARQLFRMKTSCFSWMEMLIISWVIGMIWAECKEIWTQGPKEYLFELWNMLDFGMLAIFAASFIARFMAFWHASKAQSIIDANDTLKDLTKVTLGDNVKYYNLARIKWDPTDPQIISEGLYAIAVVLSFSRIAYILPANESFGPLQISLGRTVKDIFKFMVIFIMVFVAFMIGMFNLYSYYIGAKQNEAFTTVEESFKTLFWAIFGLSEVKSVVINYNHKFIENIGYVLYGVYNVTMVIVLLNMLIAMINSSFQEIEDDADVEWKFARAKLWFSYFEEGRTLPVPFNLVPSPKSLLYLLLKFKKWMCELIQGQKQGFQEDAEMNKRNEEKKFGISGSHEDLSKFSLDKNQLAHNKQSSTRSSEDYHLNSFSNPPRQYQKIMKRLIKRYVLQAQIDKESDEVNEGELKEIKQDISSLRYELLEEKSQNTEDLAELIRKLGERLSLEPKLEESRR

Turning to `Cc1cccc(C)c1NC(=O)C1CC2CCC1C2` (centres undefined), the values for the EC50 in assay [1], in [2] and in assay [3] were 4.66 µM (active), 13.4 µM (active) and 3.24 µM (active), respectively.

Take `O=[N+]([O-])c1cnc(Sc2ccncn2)s1`: the EC50 in assay [4] is 4.12 µM (active); in assay [5], 2.21 µM (active); in [9], 5.64 µM (active); in [12] it was > 40 µM (inactive); in [14] it was 8.38 µM (active); in assay [17] it was 4.97 µM (inconclusive). The figures for the concentration at half-maximal activity (AC50) in assay [6] and in assay [8] were 4.35 µM (active) and 1.49 µM (active), respectively. Further, the IC50 in assay [7] was 0.86 µM (active); in assay [10] it was 1.29 µM (active); in assay [11], > 49.7 µM (inactive); in assay [13] it was 1.72 µM (not active); in assay [15], 5.67 µM (active); in [16], 15 µM (not active).

For the compound `Cc1ccc(S(=O)(=O)Nc2cc(SCC(=O)O)c(O)c3ccccc23)cc1[N+](=O)[O-]`, the IC50 is 59.8 µM (inactive) in assay [18] and 11.4 µM (active) in assay [19].

On to `COc1ccc(S(=O)(=O)N(C)C[C@@H]2Oc3c(NC(=O)c4ccncc4)cccc3C(=O)N([C@@H](C)CO)C[C@H]2C)cc1`, for which, in assay [20], the AC50 is 32.7 µM (active).

In the case of `Cc1cc(N2CCCCCC2)nc2ccccc12`, the IC50 in assay [21] was 1.5 µM (active); in assay [22], 9.55 µM (active); in [23], 1.96 µM (active); in assay [24], 9.74 µM (active).

As a reminder, the EC50 is the midpoint of the concentration-response curve. As a reminder, the AC50 is the concentration giving half of the maximal activity seen. The IC50 is the concentration that inhibits the measured activity by half.

Source of the values: ChEMBL document CHEMBL1201862, “PubChem BioAssay data set” (2004).
